Patent US4693884A, “Technetium-99m triphosphonates and tetraphosphonates for the scintigraphic visualization of res-containing organs and lymph vessels, and a process for their preparation” (Hoechst Aktiengesellschaft, priority 1982, dated 1987)
Values belong to the compound of their own block, whether it stands above or below them.

Experiments:
[1] = Example 3: distribution of activity over the organs in rats, lyophilizate; assay type: in vivo, Sprague-Dawley rats; details: 30 min
Protocol: 8 g of sodium 2,4,4-triphosphonobutyrate are dissolved in about 60 ml of double-distilled water, the pH of the solution then being 8.5. After the pH had been adjusted to 7 with 1N HCl, 120 mg of SnCl2.2H2 O in 3 ml of 1N HCl were added, the pH was adjusted to 6 using 0.1N NaOH, and the solution was made up to 160 ml with double-distilled water. All operations should be carried out under a protective atmosphere of nitrogen gas. The solution thus obtained is freeze-dried in individual 1 ml portions in snap-closure bottles which have previously been frozen with liquid nitrogen. The contents are covered with nitrogen and the bottles are closed.
After storage for some weeks, the lyophilizate is dissolved in 10 ml of physiologic saline containing 2 mCi of technetium-99m-pertechnetate. After 30 minutes, 3 Sprague-Dawley rats (about 200 g) each receive 0.1 ml of this solution injected into the femoral vein, and 30 minutes later the animals are sacrificed with ether and the distribution of activity over the organs is determined. The following mean figures (as percentage of the dose administered) result: […]

[2] = Accumulation of phosphoric acid derivatives investigated as technetium-99m diagnostic agents (bone, liver, RES); details: in vivo
Description: It is possible to use phosphoric acid derivatives, particularly organic phosphonic acid derivatives, for bone scintigraphy. Many compounds have been investigated in the search for derivatives suitable as a technetium-99m diagnostic agent for bone.

[3] = Organ distribution of 99mTc-labeled substances in rats 30 minutes after injection as a function of the amount of substance administered; assay type: in vivo; details: for Blood/ml / Kidneys / Liver / Lung / Remainder of body / Spleen / Thyroid / tissue uptake at 0.5 h: 30 min after injection, n = 3; for accumulation in the liver and spleen compared with phytate / accumulation of activity in the kidneys, blood, femur and remainder of the body compared with phytate: all amounts of substance investigated; for suitability as diagnostic agent for visualization of RES-containing organs compared with 99mTc phytate: deduction from the animal experiments; for tissue uptake at 0.5 h: rat, in vivo, iv, 0.05 mg, read-out: Femur/g
Protocol: Assuming that 2-20 mg of TPB, ETP, PTP or phytate are administered to humans, and assuming that the weight of human is 80 kg, this corresponds to an amount administered of 25-250 μg/kg of body weight. Calculating on the basis of the body weight of rats weighing 200 g, then administration of 5-50 μg of TPB, ETP, PTP or phytate per rat exactly reflects the relationships.
Organ distribution of ^99m Tc TPB, ^99m TC ETP and ^99m Tc
phytate in rats (n = 3) 30
minutes after injection as a function of the amount of substance
(all data as a percentage of the amount of activity administered)

[4] = Comparison of 99mTc TPB, 99mTc PTP and 99mTc phytate after intravenous injection to dogs; assay type: in vivo; details: intravenous, dogs; for decrease in activity via the liver after accumulation in the liver is complete: compared with phytate
[5] = Example 5: organ distribution of 99mTc ETP in rats; assay type: in vivo, Sprague-Dawley rats; details: 30 min, intravenous
Protocol: 1.40 g of ethane-1,1,2,2-tetraphosphonic acid are dissolved in about 20 ml of double-distilled water and the pH of the solution is adjusted to 7.0 using 1N sodium hydroxide solution. The total volume of this solution is adjusted to 100 ml with double-distilled water and, while excluding oxygen, 11 mg of SnCl2.2H2 O in 5 ml of aqueous solution are added. The clear solution thus obtained is sterilized by filtration and filled, in 0.2 ml portions, into snap-closure bottles which have previously been cooled with liquid nitrogen, and is then freeze-dried. The contents are covered with nitrogen and the bottles are closed. A bottle then contains about 3.3 mg of Na salt of ETP (corresponding to about 2.7 mg of ETP) and about 11 μg of tin(II).
The substance is labeled with ^99m Tc by the addition of 5 ml of physiologic saline which contains 1.5 mCi of technetium-99m-pertechnetate.After a reaction time of 15 minutes, three Sprague-Dawley rats each received 0.1 ml of this solution by intravenous injection. 30 minutes later, the animals were sacrificed and the organ distribution of ^99m Tc ETP was measured. The following figures (as percentage of the dose administered) were found from this: […]

[6] = Example 2: organ distribution in rats, frozen solution labeled with 99mTc; assay type: in vivo, Sprague-Dawley rats; details: femoral vein
Protocol: 400 mg of 2,4,4-triphosphonobutyric acid are dissolved in about 30 ml of double-distilled water. The pH of the solution, which is about 1.7 after this, is then adjusted to pH 6 using 1N NaOH. 8 mg of SnCl2.2H2 O in 1 ml of 0.1N HCl are added to this solution, and the pH is again adjusted to 6 using 0.1N NaOH, and then the solution is made up to 40 ml. All the operations are carried out under a protective atmosphere of nitrogen gas. The solution thus obtained is frozen in individual 1 ml portions.
After 3 days, the solution is thawed and reacted with 1 ml of a ^99m Tc-pertechnetate solution which contains 4.44 MBq (120 μCi) of ^99m Tc. After 30 minutes, Sprague-Dawley rats weighing 200 g each receive 0.5 ml of this solution injected into the femoral vein. 3 animals are sacrificed with ether at 30 minutes and at 2 hours after the injection, and the organ distribution is determined.

[7] = Lymphatic scintigraphy on dogs; assay type: in vivo, beagle dogs
Protocol: In order to check the utilizability of the new diagnostic agent for lymphatic scintigraphy, lymphatic scintigraphy using ^99m Tc TPB was carried out on dogs.
A TPB labeling unit which contained CaCl2 as described in Example 4 was prepared with 5 ml of ^99m Tc-pertechnetate solution which contained 5 mCi of ^99m Tc per ml. Adult beagle dogs each received 0.3-0.4 ml of this solution injected subcutaneously into the hind paw. The change in the distribution of radioactivity with time over the hind legs was then followed using a gamma camera for 4 hours. The site of injection was shielded with lead in each case.

[8] = second amount column (printed 50 μg)
[9] = third amount column (printed 50 μg)

Compound: O=C([O-])C(CC(P(=O)(O)O)P(=O)(O)O)P(=O)(O)O.[Na+] (stereo not drawn) [sodium 2,4,4-triphosphonobutyrate]
Blood/ml ([1]; femoral vein, mean of 3 rats): 0.03 percentage of the dose adminis
Kidneys ([1]; femoral vein, mean of 3 rats): 0.08 percentage of the dose adminis
Liver ([1]; femoral vein, mean of 3 rats): 96.2 percentage of the dose adminis
Remainder of body ([1]; femoral vein, mean of 3 rats): 4.9 percentage of the dose adminis
Spleen ([1]; femoral vein, mean of 3 rats): 1.9 percentage of the dose adminis
Thyroid ([1]; femoral vein, mean of 3 rats): 0.03 percentage of the dose adminis
lungs ([1]; femoral vein, mean of 3 rats): 0.24 percentage of the dose adminis
recovered activity total ([1]; related to the dose administered): 103.4%

accumulation in bone [2]: virtually not at all
Compound: O=P(O)(O)C(CCC(P(=O)(O)O)P(=O)(O)O)P(=O)(O)O [BTP, butane-1,1,4,4-tetraphosphonic acid]
accumulation in the liver [2]: very preferentially accumulated in the liver

Blood/ml ([3]; (50 μg)): 0.02 percentage of the amount of ac
Blood/ml [3, 8]: 0.04 percentage of the amount of ac
Blood/ml [3, 9]: 0.04 percentage of the amount of ac
accumulation in the liver and spleen compared with phytate [3]: markedly higher than that of phytate
accumulation of activity in the kidneys, blood, femur and remainder of the body compared with phytate [3]: clearly lower than with phytate
decrease in activity via the liver after accumulation in the liver is complete [4]: slower
accumulation in bone [2]: virtually not at all
total recovered activity [5]: 104.5%
Blood/ml ([5]; three rats): 0.02 percentage of the dose adminis
Kidneys ([5]; three rats): 0.12 percentage of the dose adminis
Liver ([5]; three rats): 96.2 percentage of the dose adminis
Remainder of body ([5]; three rats): 7.8 percentage of the dose adminis
Spleen ([5]; three rats): 2.1 percentage of the dose adminis
Thyroid ([5]; three rats): 0.03 percentage of the dose adminis
lungs ([5]; three rats): 0.18 percentage of the dose adminis
Compound: O=P(O)(O)C(C(P(=O)(O)O)P(=O)(O)O)P(=O)(O)O [ETP, ethane-1,1,2,2-tetraphosphonic acid]
Kidneys ([3]; (50 μg)): 0.12 percentage of the amount of activity administered
Liver ([3]; (50 μg)): 96.2 percentage of the amount of activity administered
Lung ([3]; (50 μg)): 0.18 percentage of the amount of activity administered
Remainder of body ([3]; (50 μg)): 7.8 percentage of the amount of activity administered
Spleen ([3]; (50 μg)): 2.10 percentage of the amount of activity administered
Thyroid ([3]; (50 μg)): 0.03 percentage of the amount of activity administered
Kidneys [3, 8]: 0.16 percentage of the amount of activity administered
Liver [3, 8]: 95.2 percentage of the amount of activity administered
Lung [3, 8]: 0.21 percentage of the amount of activity administered
Remainder of body [3, 8]: 11.2 percentage of the amount of activity administered
Spleen [3, 8]: 2.13 percentage of the amount of activity administered
Thyroid [3, 8]: 0.03 percentage of the amount of activity administered
Kidneys [3, 9]: 0.26 percentage of the amount of activity administered
Liver [3, 9]: 93.6 percentage of the amount of activity administered
Lung [3, 9]: 0.32 percentage of the amount of activity administered
Remainder of body [3, 9]: 10.4 percentage of the amount of activity administered
Spleen [3, 9]: 1.30 percentage of the amount of activity administered
Thyroid [3, 9]: 0.04 percentage of the amount of activity administered
suitability as diagnostic agent for visualization of RES-containing organs compared with 99mTc phytate [3]: unambiguously superior
accumulation in the liver [2]: very preferentially accumulated in the liver

Compound: O=C(O)C(CC(P(=O)(O)O)P(=O)(O)O)P(=O)(O)O (stereo not drawn) [TPB, 2,4,4-triphosphonobutyric acid]
Blood/ml ([3]; (50 μg)): 0.05 percentage of the amount of ac
Kidneys ([3]; (50 μg)): 0.12 percentage of the amount of activity administered
Liver ([3]; (50 μg)): 95.8 percentage of the amount of activity administered
Lung ([3]; (50 μg)): 0.19 percentage of the amount of activity administered
Remainder of body ([3]; (50 μg)): 5.6 percentage of the amount of activity administered
Spleen ([3]; (50 μg)): 1.30 percentage of the amount of activity administered
Thyroid ([3]; (50 μg)): 0.03 percentage of the amount of activity administered
Blood/ml [3, 8]: 0.16 percentage of the amount of ac
Kidneys [3, 8]: 0.37 percentage of the amount of activity administered
Liver [3, 8]: 92.7 percentage of the amount of activity administered
Lung [3, 8]: 0.30 percentage of the amount of activity administered
Remainder of body [3, 8]: 11.5 percentage of the amount of activity administered
Spleen [3, 8]: 0.88 percentage of the amount of activity administered
Thyroid [3, 8]: 0.03 percentage of the amount of activity administered
Blood/ml [3, 9]: 0.19 percentage of the amount of ac
Kidneys [3, 9]: 0.39 percentage of the amount of activity administered
Liver [3, 9]: 88.7 percentage of the amount of activity administered
Lung [3, 9]: 0.29 percentage of the amount of activity administered
Remainder of body [3, 9]: 12.6 percentage of the amount of activity administered
Spleen [3, 9]: 0.99 percentage of the amount of activity administered
Thyroid [3, 9]: 0.03 percentage of the amount of activity administered
accumulation in the liver and spleen compared with phytate [3]: markedly higher than that of phytate
accumulation of activity in the kidneys, blood, femur and remainder of the body compared with phytate [3]: clearly lower than with phytate
suitability as diagnostic agent for visualization of RES-containing organs compared with 99mTc phytate [3]: unambiguously superior
tissue uptake at 0.5 h [3, 8]: 0.29 %ID/g
tissue uptake at 0.5 h [3, 9]: 0.3 %ID/g
excretion of activity with the urine ([4]; 30 min after injection): 0.6 % of the test dose
excretion of activity with the urine, compared with phytate [4]: markedly less
decrease in activity via the liver after accumulation in the liver is complete [4]: slower
accumulation in bone [2]: virtually not at all
accumulation in the liver [2]: very preferentially accumulated in the liver
Blood/ml ([6]; 30 min p.i.): 0.03 percentage of the dose adminis
Kidneys ([6]; 30 min p.i.): 1.74 percentage of the dose adminis
Liver ([6]; 30 min p.i.): 86.5 percentage of the dose adminis
Remainder of body ([6]; 30 min p.i.): 9.08 percentage of the dose adminis
Spleen ([6]; 30 min p.i.): 2.40 percentage of the dose adminis
Thyroid ([6]; 30 min p.i.): 0.05 percentage of the dose adminis
urine ([6]; 30 min p.i.): 1.75 percentage of the dose adminis
Blood/ml ([6]; 2 hours p.i.): 0.01 percentage of the dose adminis
Kidneys ([6]; 2 hours p.i.): 1.12 percentage of the dose adminis
Liver ([6]; 2 hours p.i.): 88.3 percentage of the dose adminis
Remainder of body ([6]; 2 hours p.i.): 8.27 percentage of the dose adminis
Spleen ([6]; 2 hours p.i.): 3.06 percentage of the dose adminis
Thyroid ([6]; 2 hours p.i.): 0.04 percentage of the dose adminis
urine ([6]; 2 hours p.i.): 2.02 percentage of the dose adminis
tissue uptake at 0.5 h ([6]; rat, bone, iv, 30 min p.i.): 0.17 %ID/g
tissue uptake at 2 h ([6]; rat, bone, iv, 2 hours p.i.): 0.22 %ID/g
suitability for lymphatic scintigraphy [7]: also suitable for lymphatic scintigraphy
